Experimental data as given in patent US8486935B2, “Xinafoate salt of N4-(2,2-difluoro-4H-benzo[1,4]oxazin-3-one)-6-yl]-5-fluoro-N2-[3-(methylaminocarbonylmethyleneoxy)phenyl]2,4-pyrimidinediamine” (Rigel Pharmaceuticals, Inc., priority 2007, dated 2013).
Structures can show the parent of a compound that is named as a salt.

What was measured:
Type in all cases: physicochemical
[1] = Solvation/hydration by thermogravimetric analysis (TGA); conditions: for hydration or solvation: TGA, ambient to 300° C.
Experimental: Solvation/Hydration was assessed by thermogravimetric analysis (TGA) using a TA Instruments Hi-Res TGA 2950 instrument measuring the weight loss of a 8.8 mg sample in an open platinum pan. The sample was heated at 20° C./min from ambient to 300° C. utilizing a nitrogen furnace purge gas.

[2] = Hygroscopicity by dynamic vapour sorption
Experimental: Hygroscopicity was assessed using dynamic vapour sorption equipment (Surface Measurement Systems Ltd, model DVS-1). The analysis was conducted at 30° C. with a nitrogen gas flow of 200 cc/min. Water sorption and desorption were determined in the range 0 to 90% relative humidity (RH) using 15% RH intervals. Exposure was for a minimum of 2 hours at each humidity or until the rate of weight change was less than 0.0003%/minute (averaged over 10 minutes). Sample weight was 12.6 mg. The sample was weighed using a CAHN D-200, seven place digital recording balance, which is an integral part of the equipment.

[3] = Solid form after micronisation using jet milling; conditions: following micronisation using jet milling
[4] = Solid state stability and excipient compatibility of the lactose monohydrate blend; conditions: for % main band remaining versus control: micronised, 1:100 blend with lactose monohydrate, control 5° C./0% humidity
Experimental: In order to test for solid state stability and excipient compatibility, a sample of the xinafoate salt was micronised by jet milling (particle size: D10=0.24 μm, D50=1.15 μm, D90=4.29 μm) and the resulting powder was blended at a 1:100 weight ratio with lactose monohydrate (Respitose grade SV008). Samples were stored for 12 weeks at 25° C./60% relative humidity and 40° C./75% relative humidity and assayed for remaining drug content and impurities at 4, 8 and 12 weeks. A control sample was stored at 5° C./0% humidity.

[5] = lactose blend, up to 12 weeks at 25° C./60% RH and 40° C./75% RH

hydration or solvation [1] | hygroscopicity ([2]; 0 to 90% RH, 30° C.) | water sorption ([2]; 90% RH, 30° C., before micronisation) [%] | water sorption ([2]; 90% relative humidity, following micronisation using jet milling) [%] | change in solid form [3] | % main band remaining versus control ([4]; 25° C./60% RH, 4 weeks) [%] | % main band remaining versus control ([4]; 25° C./60% RH, 8 weeks) [%] | % main band remaining versus control ([4]; 25° C./60% RH, 12 weeks) [%] | % main band remaining versus control ([4]; 40° C./75% RH, 4 weeks) [%] | % main band remaining versus control ([4]; 40° C./75% RH, 8 weeks) [%] | % main band remaining versus control ([4]; 40° C./75% RH, 12 weeks) [%] | change in physical form during storage [4, 5] | degradation during storage [4, 5] | Structure (SMILES) | solvate formation ([1]; nine solvents tested) | change in degree of crystallinity [3]
hydrates to form a hemihydrate | – | – | – | – | – | – | – | – | – | – | – | – | CNC(=O)COc1cccc(Nc2ncc(F)c(Nc3ccc4c(c3)NC(=O)C(F)(F)O4)n2)c1 [free base, N4-[(2,2-difluoro-4H-benzo[1,4]oxazin-3-one)-6-yl]-5-fluoro-N2-[3-(methylaminocarbonylmethyleneoxy)phenyl]-2,4-pyrimidinediamine] | formed a different solvated form in each of nine solvents tested | –
does not show any hydration or salvation | essentially non-hygroscopic | 0.6 | 0.9 | no change in solid form | 100.2 | 99.9 | 100.1 | 100.4 | 100.0 | 100.0 | no change in physical form was detected | no significant degradation was observed | CNC(=O)COc1cccc(Nc2ncc(F)c(Nc3ccc4c(c3)NC(=O)C(F)(F)O4)n2)c1 [xinafoate salt, xinafoate salt of N4-[(2,2-difluoro-4H-benzo[1,4]oxazin-3-one)-6-yl]-5-fluoro-N2-[3-(methylaminocarbonylmethyleneoxy)phenyl]-2,4-pyrimidinediamine] | – | negligible decrease in the degree of crystallinity
